Experimental data reported in patent US4585755A, “Cyclic and bridged cyclic somatostatin analogs useful as local anti-inflammatory agents” (Merck & Co., Inc., priority 1985, dated 1986).
Residues, ends and D or L forms follow the SMILES beside them.

Experiments:
[1] = test system: cellular proliferation (granuloma); experiment: Assay 2: pellet granuloma assay, compounds administered subcutaneously as saline injections; assay type: in vivo, rats (Charles River-CD); conditions: for Avg. Granuloma wt. / Avg. Adrenal wt. / Avg. Thymus wt. / Avg. body wt change: rats, 7 days, ± S.E. of mean; for Avg. Granuloma wt.: control 28 ± 3; for Avg. Adrenal wt.: control 44 ± 1; for Avg. Thymus wt.: control 552 ± 45; for Avg. body wt change: control +35 ± 2
Method: (§1) Male rats (Charles River-CD) of about 150-160 grams in weight were subcutaneously implanted in the abdominal area with two pellets each. Five animals were used per group. The pellets used were preweighed and all used in a given assay were ±1 mg from one another. The compounds were dissolved in absolute ethanol and the indicated dose applied to each pellet in 0.2 ml. The alcohol was removed in vacuo overnight. Just prior to implantation, each pellet was moistened with 0.2 ml of 0.9% saline containing 1 mg each of penicillin and streptomycin. After seven days, the pellets were dissected out together with adhering granulomatous tissue. After drying in a vacuum oven overnight at 60°-65° C., the pellets were weighed. The difference in weight between the original pellet weight and the implanted pellet weight was used as a measure of cellular proliferation (granuloma). The lower the net weight, the more anti-inflammatory activity.
Following the procedure described above for Assay 1, additional tests were conducted except that the compounds were administered subcutaneously as saline injections. The tests were carried out on six animals per group and the results obtained are shown below in Table II.

[2] = test system: cellular proliferation (granuloma); experiment: Assay 1: pellet granuloma assay, compound applied locally to implanted pellets; assay type: in vivo, rats (Charles River-CD); conditions: for Body Wt. Change / Net weight of Pellets: local on pellet, male rats, 7 days; for Net weight of Pellets: ± S.E. of mean, control 39 ± 2.7
Method: The assay method employed to test the Formula I, II and III compounds as local anti-inflammatory agents is a modification of the method described by S. L. Steelman, et al. [Steroids, 1, 163 (1963)] as follows:
as §1
The results obtained following the Assay Method described above are shown below in Table I wherein hydrocortisone was used as a positive control.

[3] = test system: growth hormone, insulin and glucogen secretion; experiment: Potency relative to somatostatin (SRIF), based on inhibition of hormone secretion; conditions: somatostatin (SRIF) potency assigned a value of 1, based upon inhibition of growth hormone
Method: Following the same procedure as described above for Assay 1, additional compounds were tested for local; i.e., topical, anti-inflammatory activity. […] In Table III, the potency of each compound tested relative to that of somatostatin is also shown, the somatostatin (SRIF) potency being assigned a value of 1 and based upon its inhibition of growth hormone, insulin and glucogen secretion.

[4] = daily dose 200 mcg subcutaneous

Compound: C[C@]12CCC(=O)C=C1CC[C@@H]1[C@@H]2[C@@H](O)C[C@@]2(C)[C@H]1CC[C@]2(O)C(=O)CO [Hydrocortisone, reference compound]
- activity of positive control (in words) ([1]; administered subcutaneously): typical activity
- Avg. Granuloma wt. ([1]; daily dose 1.0 mg subcutaneous): 22 ± 1 mg
- Avg. Adrenal wt. ([1]; daily dose 1.0 mg subcutaneous): 36 ± 3 mg
- Avg. Thymus wt. ([1]; daily dose 1.0 mg subcutaneous): 201 ± 20 mg
- Avg. body wt change ([1]; daily dose 1.0 mg subcutaneous): +22 ± 3 gm
- Avg. Granuloma wt. ([1]; daily dose 4.0 mg subcutaneous): 19 ± 1 mg
- Avg. Adrenal wt. ([1]; daily dose 4.0 mg subcutaneous): 23 ± 1 mg
- Avg. Thymus wt. ([1]; daily dose 4.0 mg subcutaneous): 41 ± 3 mg
- Avg. body wt change ([1]; daily dose 4.0 mg subcutaneous): -17 ± 2 gm
- Body Wt. Change ([2]; 200 mcg./pellet): +44 gm
- Net weight of Pellets ([2]; 200 mcg./pellet): 34 ± 2.5 mg
- Body Wt. Change ([2]; 1000 mcg./pellet): +41 gm
- Net weight of Pellets ([2]; 1000 mcg./pellet): 29 ± 2.1 mg

Compound: C[C@@H]1NC(=O)[C@H](CO)NC(=O)[C@H](CCCCN)NC(=O)[C@@H](Cc2c[nH]c3ccccc23)NC(=O)[C@H](Cc2c[nH]cn2)NC(=O)[C@H](Cc2ccccc2)N(C)C1=O [11/I, Cyclo-(Ser-Ala-N-Me-Phe-His-D-Trp-Lys)] (HELM PEPTIDE1{A.[meF].H.[dW].K.S}$PEPTIDE1,PEPTIDE1,1:R1-6:R2$$$V2.0)
- Potency Relative to Samatostatin (SRIF) [3]: 200

Compound: CC(C)[C@@H]1NC(=O)[C@H](CCCCN)NC(=O)[C@@H](Cc2c[nH]c3ccccc23)NC(=O)[C@H](Cc2ccc(O)cc2)NC(=O)[C@H](C)N(C)C(=O)[C@H](Cc2ccccc2)NC1=O [Compound 8 of Formula I, Cyclo-(N-Me-Ala-Tyr-D-Trp-Lys-Val-Phe)]
- effect on adrenal weight (in words) ([1]; administered subcutaneously): slight decrease in the adrenal weight
- anti-inflammatory activity (in words) ([1]; administered subcutaneously at a total dose of 1.4 mg (0.2 mg×7)): no anti-inflammatory activity
- anti-inflammatory activity (in words) ([1]; administered systematically, i.e., subcutaneously): no anti-inflammatory activity
- Avg. Granuloma wt. ([1]; daily dose 50 mcg subcutaneous): 27 ± 3 mg
- Avg. Adrenal wt. ([1]; daily dose 50 mcg subcutaneous): 43 ± 2 mg
- Avg. Thymus wt. ([1]; daily dose 50 mcg subcutaneous): 576 ± 14 mg
- Avg. body wt change ([1]; daily dose 50 mcg subcutaneous): +38 ± 3 gm
- Avg. Granuloma wt. [1, 4]: 29 ± 2 mg
- Avg. Adrenal wt. [1, 4]: 36 ± 2 mg
- Avg. Thymus wt. [1, 4]: 571 ± 26 mg
- Avg. body wt change [1, 4]: +35 ± 2 gm
- Body Wt. Change ([2]; 10 mcg./pellet): +43 gm
- Net weight of Pellets ([2]; 10 mcg./pellet): 39 ± 2.9 mg
- Body Wt. Change ([2]; 100 mcg./pellet): +40 gm
- Net weight of Pellets ([2]; 100 mcg./pellet): 30 ± 2.4 mg
- anti-inflammatory activity (in words) ([2]; administered locally, i.e., topically): clearly exhibits anti-inflammatory activity
- local anti-inflammatory activity (in words) ([2]; doses of 100-200 micrograms per pellet): significant activity
- Potency Relative to Samatostatin (SRIF) [3]: 50-100

Compound: C[C@@H](O)[C@@H]1NC(=O)[C@H](CCCCN)NC(=O)[C@@H](Cc2c[nH]c3ccccc23)NC(=O)[C@H](Cc2ccccc2)NC(=O)[C@@H]2CCCN2C(=O)[C@H](Cc2ccccc2)NC1=O [13/II, Cyclo-(Pro-Phe-D-Trp-Lys-Thr-Phe)] (HELM PEPTIDE1{P.F.[dW].K.T.F}$PEPTIDE1,PEPTIDE1,1:R1-6:R2$$$V2.0)
- Potency Relative to Samatostatin (SRIF) [3]: 6

Compound: CC(C)[C@@H]1NC(=O)[C@H](CCCCN)NC(=O)[C@H](Cc2c[nH]c3ccccc23)NC(=O)[C@H](Cc2ccc(O)cc2)NC(=O)[C@H](C)N(C)C(=O)[C@H](Cc2ccccc2)NC1=O [10/I, Cyclo-(N-Me-Ala-Tyr-L-Trp-Lys-Val-Phe)]
- Potency Relative to Samatostatin (SRIF) [3]: 50

Compound: CC(C)[C@@H]1NC(=O)[C@H](CCCCN)NC(=O)[C@@H](Cc2c[nH]c3ccccc23)NC(=O)[C@H](Cc2ccc(O)cc2)NC(=O)[C@H](C)N(C)C(=O)[C@H](Cc2c[nH]c3ccccc23)NC1=O [9/I, Cyclo-(N-Me-Ala-Tyr-D-Trp-Lys-Val-Trp)] (HELM PEPTIDE1{K.V.W.[meA].Y.[dW]}$PEPTIDE1,PEPTIDE1,1:R1-6:R2$$$V2.0)
- Potency Relative to Samatostatin (SRIF) [3]: 20-35
